Active and inactive are the calls of the source. The rule behind the calls is not given here.
Columns and labels:
Mus musculus [1] = assay: Inhibition of Akt in human AN3CA cells xenografted NCr mouse assessed as reduction of Akt phosphorylation at T308 in tumor at 100 mg/kg, po after 2 hrs; assay type: functional; details: AN3-CA
Mus musculus [2] = assay: Inhibition of Akt in human AN3CA cells xenografted NCr mouse assessed as reduction of Akt phosphorylation at S473 in tumor at 100 mg/kg, po after 2 hrs; assay type: functional; details: AN3-CA
[3] = target: T1, RAC-beta serine/threonine-protein kinase (Homo sapiens, UniProt P31751); assay: Inhibition of Akt2 (1 to 481) expressed in Sf9 cells using biotin-GRPRTSSFAEG as substrate after 20 mins by Alpha-screen assay
[4] = target: T2, RAC-alpha serine/threonine-protein kinase (Homo sapiens, UniProt P31749); assay: Inhibition of Akt1 in human AN3CA cells assessed as phosphorylation PRAS40 at T246 after 2 hrs by Western Blot analysis; assay type: cell-based, AN3-CA
Cytochrome P450 1A2 = target: T3, Cytochrome P450 1A2 (Homo sapiens, UniProt P05177); assay: Inhibition of CYP1A2 in human liver microsomes using phenacetin as substrate after 10 mins; assay type: ADME, Microsome
T3 sequence (P05177 whole entry): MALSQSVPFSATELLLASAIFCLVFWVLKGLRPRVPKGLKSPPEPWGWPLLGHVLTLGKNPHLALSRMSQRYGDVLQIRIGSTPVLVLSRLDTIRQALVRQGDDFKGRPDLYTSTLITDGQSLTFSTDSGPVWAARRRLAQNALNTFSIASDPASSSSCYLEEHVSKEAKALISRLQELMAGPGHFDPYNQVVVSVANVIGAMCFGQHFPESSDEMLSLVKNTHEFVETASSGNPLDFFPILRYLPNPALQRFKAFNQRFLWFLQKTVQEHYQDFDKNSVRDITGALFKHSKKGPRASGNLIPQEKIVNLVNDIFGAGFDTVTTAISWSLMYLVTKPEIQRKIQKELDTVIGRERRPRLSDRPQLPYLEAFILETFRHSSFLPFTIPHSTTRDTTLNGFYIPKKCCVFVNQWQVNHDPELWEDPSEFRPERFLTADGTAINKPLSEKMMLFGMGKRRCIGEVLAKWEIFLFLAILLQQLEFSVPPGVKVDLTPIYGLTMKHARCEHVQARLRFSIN

[5] = target: T2, RAC-alpha serine/threonine-protein kinase; assay: Inhibition of Akt1 in human AN3CA cells assessed as phosphorylation of Akt at S473 after 2 hrs by Western Blot analysis; assay type: cell-based, AN3-CA
[6] = target: T2, RAC-alpha serine/threonine-protein kinase; assay: Inhibition of Akt 1 in human AN3CA cells assessed as phosphorylation of Akt at T308 after 2 hrs by Western Blot analysis; assay type: cell-based, AN3-CA
[7] = Plasma concentration in CD1 mouse at 100 mg/kg, po after 2 hrs by LC/MS/MS analysis; assay type: ADME, organism-based; parameters: dose 100 mg/kg, route oral
[8] = target: T4, RAC-gamma serine/threonine-protein kinase (Homo sapiens, UniProt Q9Y243); assay: Inhibition of Akt3 (1 to 479) expressed in Sf9 cells using biotin-GRPRTSSFAEG as substrate after 20 mins by Alpha-screen assay
[9] = target: T2, RAC-alpha serine/threonine-protein kinase; assay: Inhibition of Akt1 in human A2780 cells assessed as phosphorylation PRAS40 at T246 after 2 hrs by Western Blot analysis; assay type: cell-based
Cytochrome P450 2D6 = Cytochrome P450 2D6 (Homo sapiens, UniProt P10635); assay: Inhibition of CYP2D6 in human liver microsomes using bufuralol as substrate after 10 mins; assay type: ADME, Microsome
[10] = Oral bioavailability in NCr mouse at 100 mg/kg; assay type: ADME, organism-based; details: in vivo
Cytochrome P450 3A4 = Cytochrome P450 3A4 (Homo sapiens, UniProt P08684); assay: Inhibition of CYP3A4 in human liver microsomes using midazolam as substrate after 10 mins; assay type: ADME, Microsome
[11] = target: T2, RAC-alpha serine/threonine-protein kinase; details: Sf9
Mus musculus [12] = assay: Inhibition of Akt in human AN3CA cells xenografted NCr mouse assessed as reduction of p70S6 phosphorylation at T389 in tumor at 100 mg/kg, po after 2 hrs; assay type: functional; details: AN3-CA
[13] = target: T4, RAC-gamma serine/threonine-protein kinase; assay: Binding affinity to Akt3 (1 to 479) expressed in Sf9 cells assessed as change in melting temperature at 15 uM
Cytochrome P450 2C8 = target: T5, Cytochrome P450 2C8 (Homo sapiens, UniProt P10632); assay: Inhibition of CYP2C8 in human liver microsomes using paclitaxel as substrate after 10 mins; assay type: ADME, Microsome
T5 sequence (P10632 whole entry): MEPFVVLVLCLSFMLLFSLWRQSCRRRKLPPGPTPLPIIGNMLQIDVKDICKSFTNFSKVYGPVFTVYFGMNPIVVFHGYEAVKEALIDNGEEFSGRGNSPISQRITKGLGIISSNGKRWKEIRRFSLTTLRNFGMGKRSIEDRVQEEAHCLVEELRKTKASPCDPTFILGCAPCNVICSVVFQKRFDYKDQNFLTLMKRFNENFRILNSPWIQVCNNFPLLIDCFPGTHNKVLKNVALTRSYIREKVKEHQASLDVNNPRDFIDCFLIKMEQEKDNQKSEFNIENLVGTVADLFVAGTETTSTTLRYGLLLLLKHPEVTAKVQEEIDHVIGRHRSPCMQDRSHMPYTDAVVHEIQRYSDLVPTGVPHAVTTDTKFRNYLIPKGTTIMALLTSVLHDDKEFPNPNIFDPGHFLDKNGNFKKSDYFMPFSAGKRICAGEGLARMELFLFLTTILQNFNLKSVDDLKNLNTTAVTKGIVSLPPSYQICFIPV

[14] = Drug level in human AN3CA cells xenografted NCr mouse tumor at 100 mg/kg, po after 2 hrs; assay type: ADME, organism-based, Neoplasm, AN3-CA; parameters: dose 100 mg/kg, route oral; details: read-out: Drug uptake
A2780 = assay: Antiproliferative activity against human A2780 cells after 72 hrs by MTS assay; assay type: functional, cell-based; details: A2780, 72 h
[15] = target: T2, RAC-alpha serine/threonine-protein kinase; assay: Inhibition of Akt1 (1 to 480) expressed in Sf9 cells using biotin-GRPRTSSFAEG as substrate after 20 mins by Alpha-screen assay
Cytochrome P450 2C9 = Cytochrome P450 2C9 (Homo sapiens, UniProt P11712); assay: Inhibition of CYP2C9 in human liver microsomes using tolbutamide as substrate after 10 mins; assay type: ADME, Microsome
[16] = Half life in human liver microsomes at 1 uM by LC/MS/MS; assay type: ADME, Microsome
AN3-CA = assay: Antiproliferative activity against human AN3CA cells after 72 hrs by MTS assay; assay type: functional, cell-based
[17] = target: T2, RAC-alpha serine/threonine-protein kinase; assay: Inhibition of Akt 1 in human A2780 cells assessed as phosphorylation of Akt at T308 after 2 hrs by Western Blot analysis; assay type: cell-based
[18] = target: T1, RAC-beta serine/threonine-protein kinase; assay: Binding affinity to Akt2 (1 to 481) expressed in Sf9 cells assessed as change in melting temperature at 15 uM
[19] = Half life in male CD1 mouse liver microsomes at 1 uM by LC/MS/MS; assay type: ADME, Microsome
[20] = Half life in female CD1 mouse liver microsomes at 1 uM by LC/MS/MS; assay type: ADME, Microsome
[21] = target: T2, RAC-alpha serine/threonine-protein kinase; assay: Inhibition of Akt1 in human A2780 cells assessed as phosphorylation of Akt at S473 after 2 hrs by Western Blot analysis; assay type: cell-based
Cytochrome P450 2C19 = Cytochrome P450 2C19 (Homo sapiens, UniProt P33261); assay: Inhibition of CYP2C19 in human liver microsomes using S-mephenytoin as substrate after 10 mins; assay type: ADME, Microsome
[22] = Drug level in human AN3CA cells xenografted NCr mouse tumor at 250 mg/kg, po after 2 hrs; assay type: ADME, organism-based, Neoplasm, AN3-CA; parameters: dose 250 mg/kg, route oral; details: read-out: Drug uptake
Mus musculus [23] = assay: Inhibition of Akt in human AN3CA cells xenografted NCr mouse assessed as reduction of Akt phosphorylation at T308 in tumor at 250 mg/kg, po after 2 hrs; assay type: functional; details: AN3-CA
[24] = Plasma concentration in CD1 mouse at 250 mg/kg, po after 2 hrs by LC/MS/MS analysis; assay type: ADME, organism-based; parameters: dose 250 mg/kg, route oral
[25] = target: T2, RAC-alpha serine/threonine-protein kinase; assay: Binding affinity to Akt1 (1 to 480) expressed in Sf9 cells by SPR analysis
Mus musculus [26] = assay: Inhibition of Akt in human AN3CA cells xenografted NCr mouse assessed as reduction of Akt phosphorylation at S473 in tumor at 250 mg/kg, po after 2 hrs; assay type: functional; details: AN3-CA
Mus musculus [27] = assay: Inhibition of Akt in human AN3CA cells xenografted NCr mouse assessed as reduction of Akt phosphorylation at S473 in tumor at 250 mg/kg, po after 4 hrs; assay type: functional; details: AN3-CA
Mus musculus [28] = assay: Inhibition of Akt in human AN3CA cells xenografted NCr mouse assessed as reduction of p70S6 phosphorylation at T389 in tumor at 250 mg/kg, po after 2 hrs; assay type: functional; details: AN3-CA
Mus musculus [29] = assay: Inhibition of Akt in human AN3CA cells xenografted NCr mouse assessed as reduction of Akt phosphorylation at T308 in tumor at 250 mg/kg, po after 4 hrs; assay type: functional; details: AN3-CA
[30] = target: T2, RAC-alpha serine/threonine-protein kinase; assay: Inhibition of Akt1 (1 to 480) expressed in Sf9 cells in presence of A674563
[31] = Drug level in human AN3CA cells xenografted NCr mouse tumor at 250 mg/kg, po after 4 hrs; assay type: ADME, organism-based, Neoplasm, AN3-CA; parameters: dose 250 mg/kg, route oral; details: read-out: Drug uptake
Mus musculus [32] = assay: Inhibition of Akt in human AN3CA cells xenografted NCr mouse assessed as reduction of p70S6 phosphorylation at T389 in tumor at 250 mg/kg, po after 4 hrs; assay type: functional; details: AN3-CA
[33] = Plasma concentration in CD1 mouse at 250 mg/kg, po after 4 hrs by LC/MS/MS analysis; assay type: ADME, organism-based; parameters: dose 250 mg/kg, route oral

T4 sequence (Q9Y243 whole entry): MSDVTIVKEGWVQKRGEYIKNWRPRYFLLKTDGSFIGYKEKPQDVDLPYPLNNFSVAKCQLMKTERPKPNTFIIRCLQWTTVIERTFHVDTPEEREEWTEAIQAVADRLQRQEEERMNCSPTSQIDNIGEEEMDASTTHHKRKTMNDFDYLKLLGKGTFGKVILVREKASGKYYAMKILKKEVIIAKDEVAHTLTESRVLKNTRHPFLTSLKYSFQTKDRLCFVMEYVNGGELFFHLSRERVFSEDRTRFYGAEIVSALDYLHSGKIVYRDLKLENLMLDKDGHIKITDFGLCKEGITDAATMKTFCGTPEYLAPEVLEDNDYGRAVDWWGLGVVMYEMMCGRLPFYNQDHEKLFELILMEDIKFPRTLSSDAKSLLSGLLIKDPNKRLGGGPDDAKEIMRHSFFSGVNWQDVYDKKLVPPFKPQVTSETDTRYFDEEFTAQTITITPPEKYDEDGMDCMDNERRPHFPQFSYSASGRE
T2 sequence (P31749 whole entry): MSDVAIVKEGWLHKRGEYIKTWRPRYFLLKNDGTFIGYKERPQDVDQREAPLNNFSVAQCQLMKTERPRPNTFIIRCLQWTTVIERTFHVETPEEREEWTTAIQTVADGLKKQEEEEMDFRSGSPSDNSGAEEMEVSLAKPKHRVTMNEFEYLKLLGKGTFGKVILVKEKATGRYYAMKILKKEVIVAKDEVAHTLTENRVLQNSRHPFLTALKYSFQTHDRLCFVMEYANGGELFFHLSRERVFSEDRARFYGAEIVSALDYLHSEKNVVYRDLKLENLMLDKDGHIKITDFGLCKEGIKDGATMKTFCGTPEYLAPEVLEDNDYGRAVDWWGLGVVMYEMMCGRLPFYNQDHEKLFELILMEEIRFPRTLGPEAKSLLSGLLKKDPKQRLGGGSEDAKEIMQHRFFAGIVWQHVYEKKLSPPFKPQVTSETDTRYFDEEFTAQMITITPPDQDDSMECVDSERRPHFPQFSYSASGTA
T1 sequence (P31751 whole entry): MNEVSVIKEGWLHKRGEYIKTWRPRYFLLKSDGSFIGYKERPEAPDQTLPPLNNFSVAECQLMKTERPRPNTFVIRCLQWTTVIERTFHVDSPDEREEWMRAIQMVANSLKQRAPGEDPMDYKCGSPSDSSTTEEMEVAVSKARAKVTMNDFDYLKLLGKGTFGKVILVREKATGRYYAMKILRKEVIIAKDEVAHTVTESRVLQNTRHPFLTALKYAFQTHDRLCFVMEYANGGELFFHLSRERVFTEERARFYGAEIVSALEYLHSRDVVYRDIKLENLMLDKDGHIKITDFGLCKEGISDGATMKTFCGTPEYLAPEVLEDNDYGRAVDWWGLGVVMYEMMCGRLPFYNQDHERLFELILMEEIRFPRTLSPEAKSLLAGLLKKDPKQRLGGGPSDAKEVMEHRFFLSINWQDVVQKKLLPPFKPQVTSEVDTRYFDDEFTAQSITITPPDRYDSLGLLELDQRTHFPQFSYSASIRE
Sequence of Cytochrome P450 2D6 (P10635 whole entry): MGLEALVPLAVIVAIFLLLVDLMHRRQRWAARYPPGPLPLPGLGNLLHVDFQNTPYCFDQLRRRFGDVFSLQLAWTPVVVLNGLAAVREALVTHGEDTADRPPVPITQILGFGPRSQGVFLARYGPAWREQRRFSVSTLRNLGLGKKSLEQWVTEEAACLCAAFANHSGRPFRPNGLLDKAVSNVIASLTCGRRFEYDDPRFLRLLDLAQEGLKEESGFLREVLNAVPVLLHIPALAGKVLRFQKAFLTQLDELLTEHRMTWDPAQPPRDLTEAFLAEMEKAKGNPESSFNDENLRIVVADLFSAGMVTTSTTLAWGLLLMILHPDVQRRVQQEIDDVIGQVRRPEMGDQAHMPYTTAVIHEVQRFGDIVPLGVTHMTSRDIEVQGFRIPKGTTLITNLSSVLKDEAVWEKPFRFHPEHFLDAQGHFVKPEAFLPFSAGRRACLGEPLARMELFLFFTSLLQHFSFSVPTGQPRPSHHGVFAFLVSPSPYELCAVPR
Sequence of Cytochrome P450 2C19 (P33261 whole entry): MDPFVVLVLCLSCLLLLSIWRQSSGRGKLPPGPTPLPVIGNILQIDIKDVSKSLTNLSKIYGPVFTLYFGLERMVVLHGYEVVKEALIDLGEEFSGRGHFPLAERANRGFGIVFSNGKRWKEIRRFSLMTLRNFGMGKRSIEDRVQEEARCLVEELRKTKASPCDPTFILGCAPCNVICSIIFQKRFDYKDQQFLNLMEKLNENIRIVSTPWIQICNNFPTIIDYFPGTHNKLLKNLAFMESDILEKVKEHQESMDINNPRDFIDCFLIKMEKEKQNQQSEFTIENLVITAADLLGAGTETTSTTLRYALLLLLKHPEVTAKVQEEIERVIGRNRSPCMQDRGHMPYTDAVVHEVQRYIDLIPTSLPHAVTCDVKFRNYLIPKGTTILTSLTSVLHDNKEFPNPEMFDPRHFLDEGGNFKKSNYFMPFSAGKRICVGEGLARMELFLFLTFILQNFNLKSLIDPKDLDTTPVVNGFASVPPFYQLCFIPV
Sequence of Cytochrome P450 3A4 (P08684 whole entry): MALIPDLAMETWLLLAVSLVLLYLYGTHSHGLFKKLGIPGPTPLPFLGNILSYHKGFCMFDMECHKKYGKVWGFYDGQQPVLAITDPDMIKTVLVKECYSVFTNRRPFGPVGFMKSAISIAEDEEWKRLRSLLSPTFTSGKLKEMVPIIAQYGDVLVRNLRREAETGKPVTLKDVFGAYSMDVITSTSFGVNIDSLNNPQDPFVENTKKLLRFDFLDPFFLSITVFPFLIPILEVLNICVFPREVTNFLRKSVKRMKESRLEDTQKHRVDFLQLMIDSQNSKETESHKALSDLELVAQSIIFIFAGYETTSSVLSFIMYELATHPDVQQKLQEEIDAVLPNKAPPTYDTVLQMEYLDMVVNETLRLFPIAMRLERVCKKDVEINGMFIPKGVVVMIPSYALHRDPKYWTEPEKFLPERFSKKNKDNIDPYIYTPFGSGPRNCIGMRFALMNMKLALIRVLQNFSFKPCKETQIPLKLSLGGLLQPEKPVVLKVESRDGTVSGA
Sequence of Cytochrome P450 2C9 (P11712 whole entry): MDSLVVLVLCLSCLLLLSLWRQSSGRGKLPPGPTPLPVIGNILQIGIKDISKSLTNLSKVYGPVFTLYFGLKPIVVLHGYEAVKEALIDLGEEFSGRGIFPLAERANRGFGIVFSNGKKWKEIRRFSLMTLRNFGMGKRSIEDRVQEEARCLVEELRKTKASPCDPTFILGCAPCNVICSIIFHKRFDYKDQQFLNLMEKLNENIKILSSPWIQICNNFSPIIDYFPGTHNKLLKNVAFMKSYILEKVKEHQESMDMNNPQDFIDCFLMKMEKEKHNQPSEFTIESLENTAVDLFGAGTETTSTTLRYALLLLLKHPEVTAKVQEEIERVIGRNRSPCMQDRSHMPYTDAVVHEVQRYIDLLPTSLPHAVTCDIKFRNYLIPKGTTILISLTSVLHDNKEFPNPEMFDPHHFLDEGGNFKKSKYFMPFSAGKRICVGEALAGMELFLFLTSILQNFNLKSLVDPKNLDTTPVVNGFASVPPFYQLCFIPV

| IC50 [3] [nM] | IC50 [4] [nM] | IC50 (Cytochrome P450 1A2) [nM] | IC50 [5] [nM] | IC50 [6] [nM] | IC50 [8] [nM] | IC50 [9] [nM] | IC50 (Cytochrome P450 2D6) [nM] | IC50 (Cytochrome P450 3A4) [nM] | ΔTm [11] [°C] | ΔTm [13] [°C] | IC50 (Cytochrome P450 2C8) [nM] | IC50 (A2780) [nM] | IC50 (Cytochrome P450 2C9) [nM] | half-life at 1 µM [16] [min] | IC50 [17] [nM] | ΔTm [18] [°C] | half-life at 1 µM [19] [min] | half-life at 1 µM [20] [min] | SMILES | IC50 (AN3-CA) [nM] | other results |
| --- | --- | --- | --- | --- | --- | --- | --- | --- | --- | --- | --- | --- | --- | --- | --- | --- | --- | --- | --- | --- | --- |
| 30 | 1500 | > 10000 | 80 | 91 | 660 | 950 | > 10000 | > 10000 | 9.2 | 1.6 | > 10000 | > 100000 | > 10000 | > 30 | 62 | 4.8 | > 60 | > 60 | Nc1ncccc1-c1nc2cc(-c3cccnc3)cnc2n1-c1ccc(CNC(=O)c2ccccc2)cc1 | > 100000 | inhibition in vivo at 100 mg/kg (Mus musculus [1]): 25%; inhibition in vivo at 100 mg/kg (Mus musculus [2]): 82%; concentration at 2 h [7]: 14100 nM; bioavailability [10]: 46%; inhibition in vivo at 100 mg/kg (Mus musculus [12]): 76%; concentration at 2 h [14]: 8400 nM; IC50 [15]: 8 nM; IC50 [21]: 100 nM; IC50 (Cytochrome P450 2C19): > 10000 nM |
| 18 | 220 | > 10000 | 44 | 45 | 170 | 250 | > 10000 | > 10000 | 13 | 2.9 | 1000 | 2200 | 1000 | > 30 | 32 | 7.7 | > 30 | > 30 | CC(=O)Nc1cccc(-c2ccc3nc(-c4cccnc4N)n(-c4ccc(CNC(=O)c5cccc(F)c5)cc4)c3n2)c1 | 2000 | concentration at 2 h [22]: 1200 nM; inhibition in vivo at 250 mg/kg (Mus musculus [23]): 57%; concentration at 2 h [24]: 2000 nM; Activity [25]: Active; inhibition in vivo at 250 mg/kg (Mus musculus [26]): 62%; inhibition in vivo at 250 mg/kg (Mus musculus [27]): 51%; inhibition in vivo at 250 mg/kg (Mus musculus [28]): 90%; inhibition in vivo at 250 mg/kg (Mus musculus [29]): 67%; inhibition [30]: Active; concentration at 4 h [31]: 600 nM; inhibition in vivo at 250 mg/kg (Mus musculus [32]): 86%; concentration at 4 h [33]: 1200 nM; IC50 [21]: 27 nM; IC50 (Cytochrome P450 2C19): 1000 nM |
